Assay results as given in the supplement of paper PMC10307832.

Columns and labels:
Assay in all cases: relative viability (nuclei count vs DMSO), 5 days (fraction); higher = more cells survive
[1] = compound: C1CCC(CC1)N(CCNCCC2=C3C(=C(C=C2)O)NC(=O)CO3)C(=O)CCNCCC4=CC(=C(C=C4)Cl)Cl [AZ505] + CS(=O)(=O)N1CCN(Cc2cc3nc(-c4cccc5[nH]ncc45)nc(N4CCOCC4)c3s2)CC1 [Pictilisib] (partner 1 µM)
Procedure, shortened: (§1)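 Relative viability divides the nuclei count in treated wells by that in vehicle wells. Lung cancer cell lines were seeded in 1536-well plates, dosed by pin tool the next day, and fixed and stained after 5 days in one step with final 0.05% Triton X-100, 1% formaldehyde and 1 ug/ml Hoechst. Dosing was a single drug or a fixed anchor-drug dose plus five library-drug doses (not always all listed) in √10 steps, and values are medians of duplicate plates imaged at 4×.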

[2] = compound: C1CCC(CC1)N(CCNCCC2=C3C(=C(C=C2)O)NC(=O)CO3)C(=O)CCNCCC4=CC(=C(C=C4)Cl)Cl [AZ505] + COc1cccc2cc(-c3nc([C@H]4CC[C@H](C(=O)O)CC4)n4ncnc(N)c34)[nH]c12 [OSI-027] (partner 0.5 µM)
Procedure, shortened: as §1

[3] = compound: C1CCC(CC1)N(CCNCCC2=C3C(=C(C=C2)O)NC(=O)CO3)C(=O)CCNCCC4=CC(=C(C=C4)Cl)Cl [AZ505] + Cc1cc(Nc2cc(N3CCN(C)CC3)nc(Sc3ccc(NC(=O)C4CC4)cc3)n2)n[nH]1 [Tozasertib] (partner 0.1 µM)
Procedure, shortened: as §1

[4] = compound: C1CCC(CC1)N(CCNCCC2=C3C(=C(C=C2)O)NC(=O)CO3)C(=O)CCNCCC4=CC(=C(C=C4)Cl)Cl [AZ505] + C[C@]1(O)C[C@@H](c2nc(-c3ccc4ccc(-c5ccccc5)nc4c3)c3c(N)nccn32)C1 [Linsitinib] (partner 1 µM)
Procedure, shortened: as §1

Row | Cell Line | relative viability ([1]; first compound 0.08 µM) | relative viability ([1]; first compound 0.253 µM) | relative viability ([1]; first compound 0.8 µM) | relative viability ([1]; first compound 2.53 µM) | relative viability ([1]; first compound 8 µM) | relative viability ([2]; first compound 0.08 µM) | relative viability ([2]; first compound 0.253 µM) | relative viability ([2]; first compound 0.8 µM) | relative viability ([2]; first compound 2.53 µM) | relative viability ([2]; first compound 8 µM) | relative viability ([3]; first compound 0.08 µM) | relative viability ([3]; first compound 0.253 µM) | relative viability ([3]; first compound 0.8 µM) | relative viability ([3]; first compound 2.53 µM) | relative viability ([3]; first compound 8 µM) | relative viability ([4]; first compound 0.08 µM) | relative viability ([4]; first compound 0.253 µM) | relative viability ([4]; first compound 0.8 µM) | relative viability ([4]; first compound 2.53 µM) | relative viability ([4]; first compound 8 µM)
1 | HCC-44 | 0.635 | 0.716 | 0.479 | 0.669 | 0.601 | 0.468 | 0.594 | 0.534 | 0.639 | 0.486 | 0.887 | 0.992 | 0.922 | 0.88 | 1.04 | 0.671 | 0.691 | 0.619 | 0.654 | 0.663
2 | HCC-78 |  | 0.219 | 0.179 | 0.264 | 0.289 | 0.386 | 0.33 | 0.37 | 0.438 | 0.466 | 0.351 | 0.65 | 0.381 | 0.312 | 0.345 |  | 0.642 | 0.571 | 0.619 | 0.7
3 | HCC-366 | 0.136 | 0.186 | 0.123 | 0.128 | 0.18 | 0.817 | 0.635 | 0.948 | 0.764 | 0.924 | 0.128 | 0.113 | 0.152 | 0.132 | 0.0879 | 0.534 | 0.552 | 0.672 | 0.599 | 0.678
4 | HCC-827 | 0.944 | 0.963 | 1.1 | 0.999 | 0.953 | 0.691 | 0.844 | 0.753 | 0.846 | 0.847 | 0.421 | 0.426 | 0.448 | 0.436 | 0.447 | 0.923 | 0.958 | 0.856 | 0.977 | 0.964
5 | HOP-62 | 0.557 | 0.678 | 0.829 | 0.407 | 0.647 | 0.708 | 0.838 | 0.801 | 0.895 | 0.826 | 0.386 | 0.436 | 0.385 | 0.427 | 0.383 | 0.932 | 1.03 | 1.08 | 0.863 | 1.08
6 | IA-LM |  | 0.419 | 0.292 | 0.415 | 0.432 |  |  |  |  |  |  |  |  |  |  | 0.497 | 0.572 | 0.701 | 0.597 | 0.643
7 | LC-2-ad | 0.427 | 0.422 | 0.465 | 0.515 | 0.508 | 0.747 | 0.759 | 0.629 | 0.876 | 0.912 | 0.478 | 0.415 | 0.436 | 0.411 | 0.413 | 0.819 | 0.901 | 0.844 | 0.883 | 0.845
8 | LCLC-97TM1 | 0.233 | 0.171 | 0.273 | 0.144 | 0.15 | 0.389 | 0.335 | 0.495 | 0.395 | 0.644 | 0.218 | 0.196 | 0.214 | 0.316 | 0.302 | 0.257 | 0.2 | 0.16 | 0.201 | 0.199
9 | LCLC-103H | 0.627 | 0.532 | 0.555 | 0.657 | 0.6 | 0.447 | 0.472 | 0.447 | 0.496 | 0.476 | 0.508 | 0.504 | 0.434 | 0.461 | 0.459 | 1.01 | 0.807 | 1.03 | 1.06 | 1.07
10 | LK-2 | 0.562 | 0.706 | 0.59 | 0.597 | 0.604 | 0.238 | 0.206 | 0.232 | 0.229 | 0.2 | 0.17 | 0.167 | 0.197 | 0.167 | 0.184 | 0.408 | 0.703 | 0.578 | 0.427 | 0.812
11 | NCI-H522 |  |  |  |  |  | 0.713 | 0.583 | 0.691 | 0.812 | 0.809 | 0.459 | 0.552 | 0.488 | 0.603 | 0.674 |  |  |  |  | 
12 | NCI-H1299 | 0.576 | 0.672 | 0.703 | 0.546 | 0.722 |  |  |  |  |  |  |  |  |  |  | 0.913 | 0.942 | 0.965 | 0.903 | 0.922
13 | NCI-H1563 | 0.612 | 0.62 | 0.695 | 0.595 | 0.609 | 0.801 | 0.811 | 0.789 | 0.702 | 0.735 |  |  |  |  |  | 1.24 | 1.32 | 1.13 | 1.29 | 1.15
14 | NCI-H1623 |  |  |  |  |  | 0.423 | 0.405 | 0.452 | 0.476 | 0.398 | 0.454 | 0.457 | 0.425 | 0.445 | 0.443 |  |  |  |  | 
15 | NCI-H1648 |  |  |  |  |  | 0.282 | 0.272 | 0.295 | 0.305 | 0.267 | 0.469 | 0.581 | 0.408 | 0.562 | 0.703 |  |  |  |  | 
16 | NCI-H1650 | 0.488 | 0.594 | 0.586 | 0.492 | 0.502 | 0.7 | 0.677 | 0.672 | 0.554 | 0.806 | 0.313 | 0.448 | 0.496 | 0.369 | 0.321 |  |  |  |  | 
17 | NCI-H1703 | 0.242 | 0.235 | 0.231 | 0.256 | 0.25 |  |  |  |  |  |  |  |  |  |  | 0.635 | 0.588 | 1.17 | 0.997 | 0.853
18 | NCI-H1792 | 0.301 | 0.262 | 0.288 | 0.25 | 0.323 | 0.712 |  | 0.687 | 0.718 | 0.739 |  |  |  |  |  | 0.552 | 0.652 | 0.424 | 0.509 | 0.577
19 | NCI-H2170 | 0.319 | 0.289 | 0.254 | 0.336 | 0.33 | 0.743 | 0.677 | 0.684 | 0.738 | 0.793 | 0.845 | 0.715 | 0.641 | 0.741 | 0.766 |  |  |  |  | 
20 | NCI-H2342 |  |  |  |  |  | 0.604 | 0.712 | 0.765 | 0.587 | 0.671 | 0.441 | 0.625 | 0.559 | 0.509 | 0.618 |  |  |  |  | 
21 | SW 900 |  |  |  |  |  | 0.441 | 0.427 | 0.623 | 0.753 | 0.702 | 0.439 | 0.665 | 0.713 | 0.614 | 0.544 |  |  |  |  | 
